Test results published in patent US12077503B2, “Substituted cyclic amides and their use as herbicides” (FMC CORPORATION, priority 2015, dated 2024).

Legend:
Assay type in all cases: in vivo
[1] = test system: barnyardgrass (Echinochloa crus-galli); test: Test A preemergence; settings: for Plant response rating, Barnyardgrass: 125 g ai/ha, preemergence, 0 to 100 scale (0 no effect, 100 complete control); for Barnyardgrass plant response rating (0 to 100 scale): Preemergence, 500 g ai/ha, 0 is no effect, 100 is complete control
Description: (§1) Seeds of plant species selected from barnyardgrass (Echinochloa crus-galli), Kochia (Kochia scoparia), ragweed (common ragweed, Ambrosia elatior), ryegrass, Italian (Italian ryegrass, Lolium multiflorum), crabgrass, large (Digitaria sanguinalis), giant foxtail (Setaria faberii), green foxtail (Setaria viridis), morningglory (Ipomoea spp.), pigweed (Amaranthus retroflexus), velvetleaf (Abutilon theophrasti), wheat (Triticum aestivum), and corn (Zea mays) were planted into a blend of loam soil and sand and treated preemergence with a directed soil spray using test chemicals formulated in anon-phytotoxic solvent mixture which included a surfactant.
(§2) At the same time, plants selected from these crop and weed species and also blackgrass (Alopecurus myosuroides), and Galium (catchweed bedstraw, Galium aparine) were planted in pots containing the same blend of loam soil and sand and treated with postemergence applications of test chemicals formulated in the same manner. Plants ranged in height from 2 to 10 cm and were in the one- to two-leaf stage for the postemergence treatment. Treated plants and untreated controls were maintained in a greenhouse for approximately 10 d, after which time all treated plants were compared to untreated controls and visually evaluated for injury. Plant response ratings, summarized in Table A, are based on a 0 to 100 scale where 0 is no effect and 100 is complete control. A dash (-) response means no test result.

[2] = test system: ragweed (common ragweed, Ambrosia elatior); test: Test A preemergence; settings: for Plant response rating, Ragweed: 125 g ai/ha, preemergence, 0 to 100 scale (0 no effect, 100 complete control); for Ragweed plant response rating (0 to 100 scale): Preemergence, 500 g ai/ha, 0 is no effect, 100 is complete control
Description: as §1, §2

Kochia (Kochia scoparia) [3] = test: Test A preemergence; settings: for Plant response rating, Kochia: 125 g ai/ha, preemergence, 0 to 100 scale (0 no effect, 100 complete control); for Kochia plant response rating (0 to 100 scale): Preemergence, 500 g ai/ha, 0 is no effect, 100 is complete control
Description: as §1, §2

[4] = test system: pigweed (Amaranthus retroflexus); test: Test A preemergence; settings: for Plant response rating, Pigweed: 125 g ai/ha, preemergence, 0 to 100 scale (0 no effect, 100 complete control); for Pigweed plant response rating (0 to 100 scale): Preemergence, 500 g ai/ha, 0 is no effect, 100 is complete control
Description: as §1, §2

[5] = test system: giant foxtail (Setaria faberii); test: Test A preemergence; settings: for Plant response rating, Foxtail, Giant: 125 g ai/ha, preemergence, 0 to 100 scale (0 no effect, 100 complete control); for Foxtail, Giant plant response rating (0 to 100 scale): Preemergence, 500 g ai/ha, 0 is no effect, 100 is complete control
Description: as §1, §2

[6] = test system: ryegrass, Italian (Italian ryegrass, Lolium multiflorum); test: Test A preemergence; settings: for Plant response rating, Ryegrass, Italian: 125 g ai/ha, preemergence, 0 to 100 scale (0 no effect, 100 complete control); for Ryegrass, Italian plant response rating (0 to 100 scale): Preemergence, 500 g ai/ha, 0 is no effect, 100 is complete control
Description: as §1, §2

corn (Zea mays) = test: Test A postemergence
Description: as §1, §2

[7] = test system: barnyardgrass (Echinochloa crus-galli); test: Test A postemergence
Description: as §1, §2

[8] = test system: ragweed (common ragweed, Ambrosia elatior); test: Test A postemergence
Description: as §1, §2

Kochia (Kochia scoparia) [9] = test: Test A postemergence
Description: as §1, §2

[10] = test system: blackgrass (Alopecurus myosuroides); test: Test A postemergence
Description: as §1, §2

[11] = test system: pigweed (Amaranthus retroflexus); test: Test A postemergence
Description: as §1, §2

[12] = test system: giant foxtail (Setaria faberii); test: Test A postemergence
Description: as §1, §2

[13] = test system: wheat (Triticum aestivum); test: Test A postemergence
Description: as §1, §2

[14] = test system: Galium (catchweed bedstraw, Galium aparine); test: Test A postemergence
Description: as §1, §2

[15] = test system: ryegrass, Italian (Italian ryegrass, Lolium multiflorum); test: Test A postemergence
Description: as §1, §2

[16] = test system: ducksalad (Heteranthera limosa); test: Test B flooded paddy test; settings: Flood, 250 g ai/ha; 0 to 100 scale where 0 is no effect and 100 is complete control; 13 to 15 d
Procedure: (§3) Plant species in the flooded paddy test selected from rice (Oryra sativa), sedge, umbrella (small-flower umbrella sedge, Cyperus difformis), ducksalad (Heteranthera limosa), and barnyardgrass (Echinochloa crus-galli) were grown to the 2-leaf stage for testing. At time of treatment, test pots were flooded to 3 cm above the soil surface, treated by application of test compounds directly to the paddy water, and then maintained at that water depth for the duration of the test. Treated plants and controls were maintained in a greenhouse for 13 to 15 d, after which time all species were compared to controls and visually evaluated. Plant response ratings, summarized in Table B, are based on a scale of 0 to 100 where 0 is no effect and 100 is complete control. A dash (-) response means no test result.

[17] = test system: sedge, umbrella (small-flower umbrella sedge, Cyperus difformis); test: Test B flooded paddy test; settings: Flood, 250 g ai/ha; 0 to 100 scale where 0 is no effect and 100 is complete control; 13 to 15 d
Procedure: as §3

[18] = test system: barnyardgrass (Echinochloa crus-galli); test: Test B flooded paddy test; settings: Flood, 250 g ai/ha; 0 to 100 scale where 0 is no effect and 100 is complete control; 13 to 15 d
Procedure: as §3

rice (Oryra sativa) = test: Test B flooded paddy test; settings: Flood, 250 g ai/ha; 0 to 100 scale where 0 is no effect and 100 is complete control; 13 to 15 d
Procedure: as §3

[19] = 500 g ai/ha, postemergence, 0 to 100 scale, 0 no effect, 100 complete control
[20] = Postemergence, 125 g ai/ha, visual injury, 0 to 100 scale (0 no effect, 100 complete control), approx. 10 d

SMILES | Plant response rating, Barnyardgrass [1] | Barnyardgrass plant response rating (0 to 100 scale) [1] | Plant response rating, Ragweed [2] | Ragweed plant response rating (0 to 100 scale) [2] | Plant response rating, Kochia (Kochia (Kochia scoparia) [3]) | Kochia plant response rating (0 to 100 scale) (Kochia (Kochia scoparia) [3]) | Plant response rating, Pigweed [4] | Pigweed plant response rating (0 to 100 scale) [4] | Plant response rating, Foxtail, Giant [5] | Foxtail, Giant plant response rating (0 to 100 scale) [5] | Plant response rating, Ryegrass, Italian [6] | Ryegrass, Italian plant response rating (0 to 100 scale) [6] | Plant response rating, Corn (corn (Zea mays); [19]) | Plant response rating, Corn (corn (Zea mays); [20]) | Plant response rating, Barnyardgrass [7, 19] | Plant response rating, Barnyardgrass [7, 20] | Plant response rating, Ragweed [8, 19] | Plant response rating, Ragweed [8, 20] | Plant response rating, Kochia (Kochia (Kochia scoparia) [9]; [19]) | Plant response rating, Kochia (Kochia (Kochia scoparia) [9]; [20]) | also measured
Cc1ccc(C2CNC(=O)C2C(=O)Nc2ccc(F)c(F)c2F)cc1F (racemic) [Compound 371] | 90 | 90 | 30 | 40 | 20 | 60 | 0 | 20 | 90 | 90 | 0 | 20 | 60 | 20 | 90 | 80 | 30 | 0 | 40 | 20 | Plant response rating, Blackgrass [10, 19]: 60; Plant response rating, Blackgrass [10, 20]: 30; Plant response rating, Pigweed [11, 19]: 20; Plant response rating, Pigweed [11, 20]: 0; Plant response rating, Foxtail, Giant [12, 19]: 90; Plant response rating, Foxtail, Giant [12, 20]: 50; Plant response rating, Wheat [13, 19]: 40; Plant response rating, Wheat [13, 20]: 0; Plant response rating, Galium [14, 19]: 30; Plant response rating, Galium [14, 20]: 30; Plant response rating, Ryegrass, Italian [15, 19]: 30; Plant response rating, Ryegrass, Italian [15, 20]: 20; Plant response rating, Ducksalad [16]: 100; Plant response rating, Sedge, Umbrella [17]: 0; Plant response rating, Barnyardgrass [18]: 60; Plant response rating, Rice (rice (Oryra sativa)): 20
Cc1cccc(C2CNC(=O)C2C(=O)Nc2cccc(F)c2F)c1 (racemic) [Compound 373] | 90 | 90 | 0 | 30 | 0 | 30 | 0 | 20 | 80 | 90 | 30 | 40 | 50 | 20 | 80 | 80 | 0 | 0 | 40 | 0 | Plant response rating, Blackgrass [10, 19]: 40; Plant response rating, Blackgrass [10, 20]: 20; Plant response rating, Pigweed [11, 19]: 30; Plant response rating, Pigweed [11, 20]: 20; Plant response rating, Foxtail, Giant [12, 19]: 70; Plant response rating, Foxtail, Giant [12, 20]: 40; Plant response rating, Wheat [13, 19]: 70; Plant response rating, Wheat [13, 20]: 20; Plant response rating, Galium [14, 19]: 30; Plant response rating, Galium [14, 20]: 30; Plant response rating, Ryegrass, Italian [15, 19]: 20; Plant response rating, Ryegrass, Italian [15, 20]: 30; Plant response rating, Ducksalad [16]: 100; Plant response rating, Sedge, Umbrella [17]: 0; Plant response rating, Barnyardgrass [18]: 60; Plant response rating, Rice (rice (Oryra sativa)): 20
CC(C)Oc1cccc(C2CNC(=O)C2C(=O)Nc2ccc(F)cc2F)c1 (racemic) [Compound 377] | 90 | 90 | 0 | 0 | 50 | 80 | 50 | 70 | 90 | 90 | 20 | 60 | 50 | 0 | 90 | 90 | 60 | 40 | 60 | 30 | Plant response rating, Blackgrass [10, 19]: 70; Plant response rating, Blackgrass [10, 20]: 50; Plant response rating, Pigweed [11, 19]: 30; Plant response rating, Pigweed [11, 20]: 0; Plant response rating, Foxtail, Giant [12, 19]: 80; Plant response rating, Foxtail, Giant [12, 20]: 80; Plant response rating, Wheat [13, 19]: 50; Plant response rating, Wheat [13, 20]: 0; Plant response rating, Galium [14, 19]: 70; Plant response rating, Galium [14, 20]: 60; Plant response rating, Ryegrass, Italian [15, 19]: 50; Plant response rating, Ryegrass, Italian [15, 20]: 30; Plant response rating, Ducksalad [16]: 100; Plant response rating, Sedge, Umbrella [17]: 0; Plant response rating, Barnyardgrass [18]: 60; Plant response rating, Rice (rice (Oryra sativa)): 25
CCCOc1cccc(C2CNC(=O)C2C(=O)Nc2cccc(F)c2F)c1 (racemic) [Compound 380] | 70 | 90 | 0 | 0 | 0 | 40 | 0 | 30 | 50 | 90 | 0 | 20 | 0 | 0 | 80 | 50 | 0 | 0 | 0 | 0 | Plant response rating, Blackgrass [10, 19]: 40; Plant response rating, Blackgrass [10, 20]: 30; Plant response rating, Pigweed [11, 19]: 0; Plant response rating, Pigweed [11, 20]: 0; Plant response rating, Foxtail, Giant [12, 19]: 70; Plant response rating, Foxtail, Giant [12, 20]: 30; Plant response rating, Wheat [13, 19]: 20; Plant response rating, Wheat [13, 20]: 0; Plant response rating, Galium [14, 19]: 50; Plant response rating, Galium [14, 20]: 20; Plant response rating, Ryegrass, Italian [15, 19]: 0; Plant response rating, Ryegrass, Italian [15, 20]: 0; Plant response rating, Ducksalad [16]: 0; Plant response rating, Sedge, Umbrella [17]: 0; Plant response rating, Barnyardgrass [18]: 0; Plant response rating, Rice (rice (Oryra sativa)): 0
